# Measurements: patent US8143294B2, “2-sulfanyl-substituted imidazole derivatives and their use as cytokine inhibitors” (priority 2007, dated 2012)
# Target: p38α (Homo sapiens, UniProt Q16539)
# Experiment: P38α enzyme inhibition assay (ATF-2 phosphorylation ELISA)
# Format: biochemical
# Settings: activated p38α, substrate ATF-2, ATP 100 μM, 60 minutes incubation, photometric readout 405 nm; read-out: Kinase assay IC50
# Method: P38α Enzyme Inhibition Assay:
# First the microtiter plates are coated using a dilution of ATF-2, substrate of p38α. Each step is followed by a threefold washing step. As the substrate doesn't cover the whole surface, blocking buffer is used to capture the free binding sites. In the meantime, the test compounds are diluted using the kinase buffer, which contains ATP [100 μM], phosphatase-inhibitors and the activated p38α.
# The different dilutions of the test compounds are pipetted on the plate. ATP and the compounds compete for the enzyme's binding site. During an incubation time of 60 minutes ATF-2 is dual phosphorylated at Thr 69/71 by p38α kinase depending on its degree of inhibition. Next the first antibody is added into the wells. This antibody binds specifically at dual phosphorylated ATF-2 (Thr 69/71). Secondary antibody, that is conjugated with alkaline phosphatase, binds at the first one. Finally 4-NPP is given in the wells and after an incubation under cover of darkness it is photometrically analysed (405 nm).
# Chain of p38α (Q16539 whole entry): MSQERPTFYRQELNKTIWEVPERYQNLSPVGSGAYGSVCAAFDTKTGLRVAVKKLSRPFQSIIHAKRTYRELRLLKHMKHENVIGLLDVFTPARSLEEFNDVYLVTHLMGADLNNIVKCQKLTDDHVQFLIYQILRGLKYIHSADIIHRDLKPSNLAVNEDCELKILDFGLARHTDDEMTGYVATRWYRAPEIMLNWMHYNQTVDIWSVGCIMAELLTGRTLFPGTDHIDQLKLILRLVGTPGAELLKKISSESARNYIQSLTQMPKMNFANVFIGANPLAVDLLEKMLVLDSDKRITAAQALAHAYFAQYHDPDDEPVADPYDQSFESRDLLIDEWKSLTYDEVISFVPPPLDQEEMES
row,SMILES,IC50 [nM]
1,"CC(C)CNc1cc(-c2[nH]c(SCC(O)CO)nc2-c2ccc(F)cc2)ccn1 (stereo not drawn) [Example 8c, 3-(4-(4-Fluorophenyl)-5-(2-(isobutylamino)pyridin-4-yl)-1H-imidazol-2-ylthio)propane-1,2-diol]",13
2,"COC(=O)CSc1nc(-c2ccc(F)cc2)c(-c2ccnc(NC(C)c3ccccc3)c2)[nH]1 (stereo not drawn) [Example 8p, methyl 2-(4-(4-fluorophenyl)-5-(2-(1-phenylethylamino)pyridin-4-yl)-1H-imidazol-2-ylthio)acetate]",35
3,"CC(C)Nc1cc(-c2[nH]c(SC[C@H](O)CO)nc2-c2ccc(F)cc2)ccn1 [Example 8n, (2R)-3-(4-(4-Fluorophenyl)-5-(2-(isopropylamino)pyridin-4-yl)-1H-imidazol-2-ylthio)propane-1,2-diol]",5.5
4,"COC(=O)CSc1nc(-c2ccc(F)cc2)c(-c2ccnc(NC(C)C)c2)[nH]1 [Example 8t, Methyl 2-(4-(4-fluorophenyl)-5-(2-(isopropylamino)pyridin-4-yl)-1H-imidazol-2-ylthio)acetate]",3.6
5,"OCC(O)CSc1nc(-c2ccc(F)cc2)c(-c2ccnc(NC3CCOCC3)c2)[nH]1 (stereo not drawn) [Example 8i, 3-(4-(4-Fluorophenyl)-5-(2-(tetrahydro-2H-pyran-4-ylamino)pyridin-4-yl)-1H-imidazol-2-ylthio)propane-1,2-diol]",3.3
6,"COC(=O)CSc1nc(-c2ccc(F)cc2)c(-c2ccnc(NC(C)C(C)C)c2)[nH]1 (stereo not drawn) [Example 8s, Methyl 2-(4-(4-fluorophenyl)-5-(2-(3-methylbutan-2-ylamino)pyridin-4-yl)-1H-imidazol-2-ylthio)acetate]",20
7,"CCC(C)Nc1cc(-c2[nH]c(SCC(O)CO)nc2-c2ccc(F)cc2)ccn1 (stereo not drawn) [Example 8g, 3-(4-(4-Fluorophenyl)-5-(2-(sec-butylamino)pyridin-4-yl)-1H-imidazol-2-ylthio)propane-1,2-diol]",5.1
8,"CC(C)Nc1cc(-c2[nH]c(SCCO)nc2-c2ccc(F)cc2)ccn1 [Example 8u, 2-(4-(4-Fluorophenyl)-5-(2-(isopropylamino)pyridin-4-yl)-1H-imidazol-2-ylthio)ethanol]",3
9,"CC(C)Nc1cc(-c2[nH]c(SC[C@@H](O)CO)nc2-c2ccc(F)cc2)ccn1 [Example 8o, (2S)-3-(4-(4-Fluorophenyl)-5-(2-(isopropylamino)pyridin-4-yl)-1H-imidazol-2-ylthio)propane-1,2-diol]",3.2
10,"CC(Nc1cc(-c2[nH]c(SCCO)nc2-c2ccc(F)cc2)ccn1)c1ccccc1 (stereo not drawn) [Example 8x, 2-(4-(4-Fluorophenyl)-5-(2-(1-phenylethylamino)pyridin-4-yl)-1H-imidazol-2-ylthio)ethanol]",14
11,"CC(C)C(C)Nc1cc(-c2[nH]c(SC[C@@H](O)CO)nc2-c2ccc(F)cc2)ccn1 (stereo partly drawn) [Example 8m, (2S)-3-(4-(4-Fluorophenyl)-5-(2-(3-methylbutan-2-ylamino)pyridin-4-yl)-1H-imidazol-2-ylthio)propane-1,2-diol]",9.5
12,OCC(O)CSc1nc(-c2ccc(F)cc2)c(-c2ccncc2)[nH]1 (stereo not drawn) [reference compound],3600
13,"OCCSc1nc(-c2ccc(F)cc2)c(-c2ccnc(N[C@H]3CC[C@H](O)CC3)c2)[nH]1 [Example 8w, (1R,4R)-4-(4-(4-(4-Fluorophenyl)-2-(2-hydroxyethylthio)-1H-imidazol-5-yl)pyridin-2-ylamino)cyclohexanol]",2
14,"OCCSc1nc(-c2ccc(F)cc2)c(-c2ccnc(NC3CCOCC3)c2)[nH]1 [Example 8v, 2-(4-(4-Fluorophenyl)-5-(2-(tetrahydro-2H-pyran-4-ylamino)pyridin-4-yl)-1H-imidazol-2-ylthio)ethanol]",2.3
15,"CC(C)C(C)Nc1cc(-c2[nH]c(SC[C@H](O)CO)nc2-c2ccc(F)cc2)ccn1 (stereo partly drawn) [Example 8l, (2R)-3-(4-(4-Fluorophenyl)-5-(2-(3-methylbutan-2-ylamino)pyridin-4-yl)-1H-imidazol-2-ylthio)propane-1,2-diol]",17
16,"CC(Nc1cc(-c2[nH]c(SCC(O)CO)nc2-c2ccc(F)cc2)ccn1)c1ccccc1 (stereo not drawn) [Example 8a, 3-(4-(4-Fluorophenyl)-5-(2-(1-phenylethylamino)pyridin-4-yl)-1H-imidazol-2-ylthio)propane-1,2-diol]",42
17,"CNc1cc(-c2[nH]c(SCC(O)CO)nc2-c2ccc(F)cc2)ccn1 (stereo not drawn) [Example 8e, 3-(4-(4-Fluorophenyl)-5-(2-(methylamino)pyridin-4-yl)-1H-imidazol-2-ylthio)propane-1,2-diol]",100
18,"CCOP(=O)(CSc1nc(-c2ccc(F)cc2)c(-c2ccnc(NC(C)c3ccccc3)c2)[nH]1)OCC (stereo not drawn) [Example 8r, Diethyl (4-(4-fluorophenyl)-5-(2-(1-phenylethylamino)pyridin-4-yl)-1H-imidazol-2-ylthio)methylphosphonate]",400
19,"CC(C)C(C)Nc1cc(-c2[nH]c(SCC(O)CO)nc2-c2ccc(F)cc2)ccn1 (stereo not drawn) [Example 8f, 3-(4-(4-Fluorophenyl)-5-(2-(3-methylbutan-2-ylamino)pyridin-4-yl)-1H-imidazol-2-ylthio)propane-1,2-diol]",14
20,"CC(C)Nc1cc(-c2[nH]c(SCC(O)CO)nc2-c2ccc(F)cc2)ccn1 (stereo not drawn) [Example 8h, 3-(4-(4-Fluorophenyl)-5-(2-(isopropylamino)pyridin-4-yl)-1H-imidazol-2-ylthio)propane-1,2-diol]",3.6
21,"CC(Nc1cc(-c2[nH]c(SCC(=O)O)nc2-c2ccc(F)cc2)ccn1)c1ccccc1 (stereo not drawn) [Example 8q, 2-(4-(4-fluorophenyl)-5-(2-(1-phenylethylamino)pyridin-4-yl)-1H-imidazol-2-ylthio)acetic acid]",36
22,"OCC(O)CSc1nc(-c2ccc(F)cc2)c(-c2ccnc(NCc3ccccc3)c2)[nH]1 (stereo not drawn) [Example 8b, 3-(5-(2-(1-Benzylamino)pyridin-4-yl)-4-(4-fluorophenyl)-1H-imidazol-2-ylthio)propane-1,2-diol]",87
23,"CCNc1cc(-c2[nH]c(SCC(O)CO)nc2-c2ccc(F)cc2)ccn1 (stereo not drawn) [Example 8d, 3-(5-(2-(Ethylamino)pyridin-4-yl)-4-(4-fluorophenyl)-1H-imidazol-2-ylthio)propane-1,2-diol]",26
24,"CC(C)C(C)Nc1cc(-c2[nH]c(SCCO)nc2-c2ccc(F)cc2)ccn1 (stereo not drawn) [Example 8k, 2-(4-(4-Fluorophenyl)-5-(2-(3-methylbutan-2-ylamino)pyridin-4-yl)-1H-imidazol-2-ylthio)ethanol]",10
